Tests used:
[1] = tested on: Amyloid-β peptide release (Aβ42), HEK cells overexpressing APP (HEK-APP); assay: Amyloid-β peptide release (Aβ42) assay, AlphaLISA on supernatant of HEK-APP cells; type: cell-based; conditions: Homo sapiens, HEK293, 24 h incubation with compound, read-out: Ab42 IC50 Ranges
Description: (§1) Amyloid-β Peptide Release (Aβ42 & AβTotal) Assay to Determine IC50 Values.
(§2) Compounds are dissolved in and diluted in 100% DMSO and incubated with HEK-APP cells for 24 h at 37° C. in 5% CO2. The supernatant from HEK-APP cells are mixed with antibodies: for Aβ42 detection: AlphaLISA Amyloid-β 1-42 Kit (Perkin Elmer AL203L) Anti-Amyloid β1-42-specific antibody acceptor beads, biotinylated anti-Amyloid-“β1-42” antibody and streptavidin (SA) donor beads diluted in AlphaLISA buffer (to the instructions of the supplier). For Aβ total detection: Custom Anti-Amyloid-βtotal acceptor beads (6E10 acceptor beads), biotinylated anti-Amyloid “β1-42” antibody (Perkin Elmer AL203L) and streptavidin (SA) donor beads diluted in AlphaLISA buffer (to the instructions of the supplier). After addition of supernatant to the antibody mix, the assay is incubated for 4.5 h. Amyloid-β peptide release (Aβ42 & AβTotal) is measured with a Pherastar FS (BMG) multimode reader using the alphascreen module.

[2] = tested on: Amyloid-β peptide release (AβTotal), HEK cells overexpressing APP (HEK-APP); assay: Amyloid-β peptide release (AβTotal) assay, AlphaLISA on supernatant of HEK-APP cells; type: cell-based; conditions: ratio Abtot vs Ab42, HEK-APP cells, 24 h
Description: as §1, §2

Structure (SMILES) | IC50 [1] [nM] | Abtot/Ab42 selectivity ranges [2]
Cc1ncc2sc(C(=O)N3CCCC[C@H]3c3ccccc3)nn12 [Example 120, (5-Methyl-imidazo[5,1-b][1,3,4]thiadiazol-2-yl)-((S)-2-phenyl-piperidin-1-yl)-methanone] | 500 to 1000 | d (d: 10 fold > selectivity)
Cc1ncc2oc(-c3ccc(NC(=O)Cc4c(Cl)cc(C(F)(F)F)cc4Cl)cc3)nn12 [Example 67, 2-(2,6-dichloro-4-(trifluoromethyl)phenyl)-N-(4-(5-methylimidazo [5,1-b][1,3,4]oxadiazol-2-yl)phenyl)acetamide] | 1000 to 2200 | c (c: 50 fold > selectivity ≥ 10 fold)
Cc1ncc2sc(C(=O)N3CCCC3c3ccccc3)nn12 (stereo not drawn) [Example 93, (5-Methyl-imidazo[5,1-b][1,3,4]thiadiazol-2-yl)-(2-phenyl-pyrrolidin-1-yl)-methanone] | 100 to 500 | d (d: 10 fold > selectivity)
CCOc1ccccc1C(C)NC(=O)c1nn2c(C)ncc2s1 (stereo not drawn) [Example 90, 5-Methyl-imidazo[5,1-b][1,3,4]thiadiazole-2-carboxylic acid [1-(2-ethoxy-phenyl)-ethyl]-amide] | 500 to 1000 | d (d: 10 fold > selectivity)
COc1cc(C(=O)NCc2cccc3ccccc23)ccc1-c1nn2c(C)ncc2o1 [Example 20, 3-Methoxy-4-(5-methyl-imidazo[5,1-b][1,2,4]oxadiazol-2-yl)-N-naphthalen-1-ylmethyl-benzamide] | 1000 to 2200 | c (c: 50 fold > selectivity ≥ 10 fold)
Cc1cc(-c2nn3c(C)ncc3o2)ccc1NC(=O)Cc1ccc(Cl)cc1 [Example 44, 2-(4-chlorophenyl)-N-(2-methyl-4-(5-methylimidazo[5,1-b][1,3,4]oxadiazol-2-yl)phenyl)acetamide] | 500 to 1000 | b (b: 100 fold > selectivity ≥ 50 fold)
Cc1ncc2oc(-c3ccc(Nc4nccc(NCc5cccc(C(F)(F)F)c5)n4)cc3)nn12 [Example 76, N2-(4-(5-methylimidazo[5,1-b][1,3,4]oxadiazol-2-yl)phenyl)-N4-(3-(trifluoromethyl)benzyl) pyrimidine-2,4-diamine] | 1000 to 2200 | d (d: 10 fold > selectivity)
Cc1ncc2sc(C(=O)N(C)CCc3ccccc3)nn12 [Example 97, 5-Methyl-imidazo[5,1-b][1,3,4]thiadiazole-2-carboxylic acid methyl-phenethyl-amide] | 500 to 1000 | d (d: 10 fold > selectivity)
Cc1ncc2sc(C(=O)N3CCC[C@H]3c3ccc(Br)cc3)nn12 [Example 114, (S)-(2-(4-bromophenyl)pyrrolidin-1-yl) (5-methylimidazo[5,1-b][1,3,4]thiadiazol-2-yl)methanone] | 1000 to 2200 | d (d: 10 fold > selectivity)
COc1cc(NC(=O)Cc2ccccc2C(F)(F)F)ccc1-c1nn2c(C)ncc2o1 [Example 37, N-(3-methoxy-4-(5-methylimidazo[5,1-b][1,3,4]oxadiazol-2-yl)phenyl)-2-(2-(trifluoromethyl)phenyl)acetamide] | 1000 to 2200 | c (c: 50 fold > selectivity ≥ 10 fold)
Cc1ncc2oc(-c3ccc(Nc4ccnc(NCc5ccccc5)n4)cc3)nn12 [Example 72, N2-benzyl-N4-(4-(5-methylimidazo[5,1-b][1,3,4]oxadiazol-2-yl)phenyl)pyrimidine-2,4-diamine] | 1000 to 2200 | d (d: 10 fold > selectivity)
Cc1ncc2sc(C(=O)N(C)Cc3ccccc3)nn12 [Example 98, 5-Methyl-imidazo[5,1-b][1,3,4]thiadiazole-2-carboxylic acid benzyl-methyl-amide] | 1000 to 2200 | d (d: 10 fold > selectivity)
Cc1ncc2oc(-c3ccc(NC(=O)Cc4ccc(Cl)cc4Cl)cc3)nn12 [Example 62, 2-(2,4-dichlorophenyl)-N-(4-(5-methylimidazo[5,1-b][1,3,4]oxadiazol-2-yl)phenyl)acetamide] | 500 to 1000 | b (b: 100 fold > selectivity ≥ 50 fold)
Cc1ncc2oc(-c3ccc(NC(=O)Nc4cccc(C(F)(F)F)c4)cc3)nn12 [Example 52, 1-[4-(5-Methyl-imidazo[5,1-b][1,2,4]oxadiazol-2-yl)-phenyl]-3-(3-trifluoromethyl-phenyl)-urea] | 1000 to 2200 | d (d: 10 fold > selectivity)
Cc1ncc2oc(-c3ccc(NC(=O)Cc4cc(F)cc(F)c4F)cc3)nn12 [Example 61, N-(4-(5-methylimidazo[5,1-b][1,3,4]oxadiazol-2-yl)phenyl)-2-(2,3,5-trifluorophenyl)acetamide] | 500 to 1000 | b (b: 100 fold > selectivity ≥ 50 fold)
Cc1ncc2oc(-c3ccc(NC(=O)Cc4c(F)cc(Cl)cc4F)cc3)nn12 [Example 7, 2-(4-Chloro-2,6-difluoro-phenyl)-N-[4-(5-methyl-imidazo[5,1-b][1,2,4]oxadiazol-2-yl)-phenyl]-acetamide] | 500 to 1000 | b (b: 100 fold > selectivity ≥ 50 fold)
Cc1ncc2oc(-c3ccc(NC(=O)Cc4cccc(Cl)c4)cc3)nn12 [Example 63, 2-(3-chlorophenyl)-N-(4-(5-methylimidazo[5,1-b][1,3,4]oxadiazol-2-yl)phenyl)acetamide] | 500 to 1000 | b (b: 100 fold > selectivity ≥ 50 fold)
COc1cc(NC(=O)Cc2ccccc2)ccc1-c1nn2c(C)ncc2o1 [Example 36, N-(3-methoxy-4-(5-methylimidazo[5,1-b][1,3,4]oxadiazol-2-yl)phenyl)-2-phenylacetamide] | 1000 to 2200 | c (c: 50 fold > selectivity ≥ 10 fold)
Cc1ncc2sc(C(=O)N(C)Cc3cccc(C(F)(F)F)c3)nn12 [Example 101, 5-Methyl-imidazo[5,1-b][1,3,4]thiadiazole-2-carboxylic acid methyl-(3-trifluoromethyl-benzyl)-amide] | 500 to 1000 | d (d: 10 fold > selectivity)
Cc1ncc2oc(-c3ccc(NC(=O)Cc4ccc(-c5ccccc5)cc4)cc3)nn12 [Example 56, 2-Biphenyl-4-yl-N-[4-(5-methyl-imidazo[5,1-b][1,2,4]oxadiazol-2-yl)-phenyl]-acetamide] | 100 to 500 | a (a: selectivity ≥ 100 fold)
Cc1ncc2oc(-c3ccc(NC(=O)Cc4ccc(Cl)cc4)cc3)nn12 [Example 47, 2-(4-Chloro-phenyl)-N-[4-(5-methyl-imidazo[5,1-b] [1,2,4]oxadiazol-2-yl)-phenyl]-acetamide] | 500 to 1000 | c (c: 50 fold > selectivity ≥ 10 fold)
COc1cc(C(=O)NCc2cccc(C(F)(F)F)c2)ccc1-c1nn2c(C)ncc2o1 [Example 18, 3-Methoxy-4-(5-methyl-imidazo[5,1-b][1,2,4]oxadiazol-2-yl)-N-(3-trifluoromethyl-benzyl)-benzamide] | 1000 to 2200 | c (c: 50 fold > selectivity ≥ 10 fold)
Cc1ncc2sc(C(=O)N3CCCC3c3ccc(F)cc3)nn12 (stereo not drawn) [Example 124, [2-(4-Fluoro-phenyl)-pyrrolidin-1-yl]-(5-methyl-imidazo[5,1-b][1,3,4]thiadiazol-2-yl)-methanone] | 100 to 500 | d (d: 10 fold > selectivity)
Cc1ncc2oc(-c3ccc(NC(=O)Cc4ccccc4C(F)(F)F)cn3)nn12 [Example 83, N-[6-(5-Methyl-imidazo[5,1-b][1,2,4]oxadiazol-2-yl)-pyridin-3-yl]-2-(2-trifluoromethyl-phenyl)-acetamide] | 1000 to 2200 | c (c: 50 fold > selectivity ≥ 10 fold)
Cc1ncc2oc(-c3ccc(NC(=O)Cc4cccc(OCc5ccccc5)c4)cc3)nn12 [Example 70, 2-(3-(benzyloxy)phenyl)-N-(4-(5-methylimidazo[5,1-b][1,3,4]oxadiazol-2-yl)phenyl)acetamide] | 1000 to 2200 | c (c: 50 fold > selectivity ≥ 10 fold)
Cc1ncc2oc(-c3ccc(NC(=O)Cc4ccc(OC(F)(F)F)cc4)cn3)nn12 [Example 11, N-[6-(5-Methyl-imidazo[5,1-b][1,2,4]oxadiazol-2-yl)-pyridin-3-yl]-2-(4-trifluoromethoxy-phenyl)-acetamide] | 100 to 500 | b (b: 100 fold > selectivity ≥ 50 fold)
Cc1ncc2sc(C(=O)N3CCCCC3Cc3ccccc3)nn12 (stereo not drawn) [Example 117, (2-Benzyl-piperidin-1-yl)-(5-methyl-imidazo[5,1-b][1,3,4]thiadiazol-2-yl)-methanone] | 1000 to 2200 | d (d: 10 fold > selectivity)
Cc1ncc2sc(C(=O)NCc3ccc(Oc4ccc(F)cc4)cc3)nn12 [Example 106, 5-Methyl-imidazo[5,1-b][1,3,4]thiadiazole-2-carboxylic acid 4-(4-fluoro-phenoxy)-benzylamide] | 100 to 500 | b (b: 100 fold > selectivity ≥ 50 fold)
Cc1ncc2sc(C(=O)N3CCCC3c3ccc(Cl)cc3)nn12 (stereo not drawn) [Example 118, [2-(4-Chloro-phenyl)-pyrrolidin-1-yl]-(5-methyl-imidazo[5,1-b][1,3,4]thiadiazol-2-yl)-methanone] | 100 to 500 | –

Reference: patent US9932354B2, “Imidazo-oxadiazole and imidazo-thiadiazole derivatives” (Ares Trading S.A., priority 2012, dated 2018)
